Source: US20230257383A1, “COMPOUND SERVING AS BTK INHIBITOR, PREPARATION METHOD THEREFOR, AND USE THEREOF” (CHENGDU HYPERWAY PHARMACEUTICALS CO., LTD., priority 2020, published 2023)
pIC50: −log10 of the molar value.

Key:
[1] = tested on: TMD8 mouse subcutaneous xenograft tumor; test: TMD8 pharmacodynamic model test; type: in vivo; conditions: same dose of 10 mg/kg, FIG. 1
Experimental: Test Example 7: TNMD8 Pharmacodynamic Model Test
Human diffuse large B-cell lymphoma TMD8 cells were monolayer-cultured in vitro in RPNHI1640 medium with […], 100 U/mL penicillin and 100 μg/mL streptomycin, in a 37° C., […] incubator. Routine digestion with trypsin-EDTA was performed twice a week for passaging. When the cell density was […] and the number reached the requirement, cells were harvested, counted and inoculated. 0.2 ml (1×10^7 cells) of TMVD8 cells (added with matrigel at a volume ratio of 1:1) were subcutaneously inoculated on the right back of each mouse. The mice were administered in groups when the average tumor volume reached about 137 mm^3. Tumor diameters were measured twice a week with vernier calipers. The tumor volume was calculated by the formula V=0.5 a×b^2, where a and b represent the long and short diameters of the tumor, respectively.

[2] = Liver microsome metabolic stability test (rat); type: in vitro ADME; conditions: liver microsomes, read-out: CLint (μL/min/mg) Rat
Experimental: (§1) 1: To the sample wells of T0, T5, T10, T20, T30, T60 and NCF60, 10 μL of the test or reference working solution and 80 μL of microsome working solution (hepatic microsome with a protein concentration of 0.5 mg/mL) were added, and to Blank60 well, only the microsome working solution was added. Then samples of the Blank60, T5, T10, T20, T30 and T60 other than TO and NCF60 were placed in a 37° C. water bath and pre-incubated for about 10 min.
(§2) 2: To the TO sample well, 300 μL of stop solution (containing 200 ng/mL tolbutamide and 200 ng/mL labetalol in acetonitrile solution) was added first, followed by 10 μL of NADPH regeneration system working solution.
(§3) 3: After the pre-incubation of Blank60, T5, T10, T20, T30 and T60 incubation plates, 10 μL of NADPH regeneration system working solution was added to each sample well to start the reaction, and 10 μL of 100 mM potassium phosphate buffer was added to the NCF60 sample well.
(§4) 4: After incubation for an appropriate time (such as 5, 10, 20, 30 and 60 min), to each test sample well and control well of the Blank60, T5, T10, T20, T30, T60 and NCF60 plates, 300 μL of stop solution was added to terminate the reaction.
(§5) 5: All sample plates were shaken to mix well and centrifuged at 4000 rpm for 20 min, and 100 μL of the supernatant of the test sample or control sample was taken and diluted with 300 μL of pure water for LC-MS/MS analysis.
(§6) 6: Data analysis: T1/2 and CLint(mic) (μL/min/mg) values were calculated according to the first-order elimination kinetics. The first-order elimination kinetics equation was: […]

[3] = tested on: TMD8 cell proliferation; test: In vitro cell proliferation inhibitory activity test (CTG), TMD8; type: cell-based; conditions: Homo sapiens, TMD8, 72 h, TMD8 cells
Experimental: (§7) Test Example 4: In Vitro Cell Proliferation Inhibitory Activity Test
(§8) Cells were cultured in 1640 medium, added with 10% inactivated FBS and 1% double antibiotics, and cultured at 37° C. and 5% CO2.
(§9) (1) Cells were routinely cultured until the cell density was 80%-90%, and the cells were harvested when their number reached the requirement.
(§10) (2) Cells were resuspended with corresponding culture medium, counted, and prepared into cell suspension at appropriate density.
(§11) (3) The cell suspension was added to a 96-well plate, 100 μL per well.
(§12) (4) Cells were cultured overnight in a 37° C., 5% CO2 incubator.
(§13) (1) The compounds to be tested were diluted with DMSO to make a stock solution with a final concentration of 20 mM for later use.
(§14) (2) The stock solution was diluted 10 times from 20 mM to 2 mM with DMSO, and then diluted 3 times from 2 mM to 9 concentrations.
(§15) (3) The blank control wells were cells plus 0.5% DMSO, as high-reading control wells.
(§16) (4) Wells with no cells and only medium were used as low-reading control wells.
(§17) 4: Cell treatment with compound
(§18) (1) 24 h after the cells were plated, the compounds acted alone, and 99 μL of growth medium was added to each well, followed by 1 μL of the compound prepared in step 3. The plate was shaken gently to mix uniformly, and then placed in a 37° C., 5% CO2 incubator.
(§19) (2) The cell plate was placed in an incubator for 72 h.
(§20) 5: Detection by CTG method
(§21) (1) The cell plate to be tested was placed at room temperature for 30 min, and 100 μL of medium was discarded from each well.
(§22) (2) 100 μL of CTG reagent (CelltiterGlo kit) was added to each well, placed on a fast shaker for 2 min, and stood at room temperature in the dark for 30 min.
(§23) (3) The chemiluminescent signal value was read with the Envision instrument.
(§24) IC50 was calculated by using GraphPad Prism 8 software. The IC50 (half inhibitory concentration) of the compound was derived using the following nonlinear fitting formula, and the results are shown in the following table:
(§25) Y=Bottom+(Top−Bottom)/(1+10^((Log IC50−X)×HillSlope))
(§26) X: log value of compound concentration, Y: inhibition rate (% inhibition)
(§27) Inhibition rate (% inhibition)=(reading of high-reading control well-reading of compound well)/(reading of high-reading control well-reading of low-reading control well)×100

[4] = Liver microsome metabolic stability test (human); type: in vitro ADME; conditions: liver microsomes, read-out: CLint (μL/min/mg) Human
Experimental: as §1, §2, §3, §4, §5, §6

[5] = Pharmacokinetic test, oral, SD rats; type: in vivo; conditions: oral 10 mg/kg
Experimental: Each test compound was administered orally (10 mg/kg, 3 rats in each group) to SD rats for pharmacokinetic study. […] Animals were fasted overnight before oral administration, and fed again after 4 h of administration. […] At each collection time point, 3 whole blood samples were collected at a the collection volume of about 0.2-0.3 mL. […] The collected plasma was stored at −20° C. before analysis. 20 μL of plasma sample was added into a 1.6 mL 96-well deep-well plate, added with 200 μL of working internal standard solution (the same volume of vehicle was added to the blank instead of internal standard), vortexed for 1 min, and centrifuged at 5800 rpm for 10 min. 100 μL of the supernatant was added to a 96-well injection plate for LC-MS/MS analysis.

[6] = tested on: DOHH2 cell proliferation; test: In vitro cell proliferation inhibitory activity test (CTG), DOHH2; type: cell-based; conditions: Homo sapiens, DOHH-2
Experimental: as §7, §8, §9, §10, §11, §12, §13, §14, §15, §16, §17, §18, §19, §20, §21, §22, §23, §24, §25, §26, §27

[7] = tested on: BT474 cell proliferation; test: In vitro cell proliferation inhibitory activity test (CTG), BT474; type: cell-based; conditions: Homo sapiens, BT-474, BT474 cell proliferation
Experimental: as §7, §8, §9, §10, §11, §12, §13, §14, §15, §16, §17, §18, §19, §20, §21, §22, §23, §24, §25, §26, §27

[8] = tested on: NCI-N87 cell proliferation; test: In vitro cell proliferation inhibitory activity test (CTG), NCI-N87; type: cell-based; conditions: Homo sapiens
Experimental: as §7, §8, §9, §10, §11, §12, §13, §14, §15, §16, §17, §18, §19, §20, §21, §22, §23, §24, §25, §26, §27

[9] = target: HER2 kinase (Homo sapiens, UniProt P04626); test: HER2 kinase activity test (HTRF); type: biochemical
HER2 kinase, sequence (P04626 23-1255): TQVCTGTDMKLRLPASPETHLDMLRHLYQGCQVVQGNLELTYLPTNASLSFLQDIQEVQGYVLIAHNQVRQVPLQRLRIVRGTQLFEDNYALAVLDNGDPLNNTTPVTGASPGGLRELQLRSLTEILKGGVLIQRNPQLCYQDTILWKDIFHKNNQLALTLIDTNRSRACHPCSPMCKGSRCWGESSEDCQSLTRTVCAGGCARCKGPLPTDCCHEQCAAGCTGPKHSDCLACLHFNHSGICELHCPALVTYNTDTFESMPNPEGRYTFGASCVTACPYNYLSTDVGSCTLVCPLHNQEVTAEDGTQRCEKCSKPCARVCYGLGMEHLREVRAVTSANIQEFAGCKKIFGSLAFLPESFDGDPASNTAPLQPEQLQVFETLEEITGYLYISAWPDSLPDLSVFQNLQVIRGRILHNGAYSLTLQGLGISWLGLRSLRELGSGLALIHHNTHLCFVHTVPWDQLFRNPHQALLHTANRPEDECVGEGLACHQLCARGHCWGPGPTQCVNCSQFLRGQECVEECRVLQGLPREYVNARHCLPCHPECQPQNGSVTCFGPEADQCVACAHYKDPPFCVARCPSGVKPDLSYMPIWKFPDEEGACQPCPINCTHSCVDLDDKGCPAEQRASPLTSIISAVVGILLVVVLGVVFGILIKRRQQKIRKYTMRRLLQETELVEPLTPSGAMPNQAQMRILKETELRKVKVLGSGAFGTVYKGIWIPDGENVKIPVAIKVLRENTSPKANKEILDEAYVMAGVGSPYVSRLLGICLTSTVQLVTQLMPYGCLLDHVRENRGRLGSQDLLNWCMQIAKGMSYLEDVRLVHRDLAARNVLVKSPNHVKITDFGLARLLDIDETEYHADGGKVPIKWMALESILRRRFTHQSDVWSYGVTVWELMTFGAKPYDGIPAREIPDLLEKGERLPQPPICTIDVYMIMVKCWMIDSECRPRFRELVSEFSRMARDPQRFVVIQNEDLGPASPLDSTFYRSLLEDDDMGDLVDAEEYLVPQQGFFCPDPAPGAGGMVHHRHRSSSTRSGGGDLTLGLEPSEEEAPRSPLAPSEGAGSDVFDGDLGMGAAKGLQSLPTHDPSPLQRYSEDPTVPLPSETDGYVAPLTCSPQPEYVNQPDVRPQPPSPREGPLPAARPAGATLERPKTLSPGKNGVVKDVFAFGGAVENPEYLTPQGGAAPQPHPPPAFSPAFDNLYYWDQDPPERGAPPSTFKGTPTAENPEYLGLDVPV
Experimental: Test Example 5: HER2 Kinase Activity Test
1. Her2 Kinase test steps
2) 100 nl of the diluted compound working solution was transferred into each well of a reaction plate (784075, Greiner) by an Echo 550 liquid hander. The reaction plate was sealed with a sealing film and centrifuged at 1000 g for 1 min.
3) 1 ng/μL Her2 kinase solution was prepared with 1× kinase reaction buffer.
4) 5 μL of the kinase solution prepared above was added to each well of the reaction plate. The plate was sealed with a sealing film, centrifuged at 1000 g for 1 min, and placed at room temperature for 10 min.
5) A mixture of 2× kinase substrate and ATP was prepared by using 1× kinase reaction buffer, and the 2× Her2 kinase substrate was 2 μM TK-substrate-biotin and 4 μM ATP
6) 5 μL of the mixture of 2× TK-substrate-biotin and ATP was added to the reaction plate, centrifuged at 1000 g for 30 seconds to start the reaction.
7) Her2 kinase test was performed at room temperature for 50 min of reaction.
9) 10 μL of the mixture of Sa-XL 665 and TK-antibody-Cryptate was added to each well, centrifuged at 1000 g for 30 seconds, and reacted at room temperature for 1 h.
10) The fluorescence signals at 615 nm (Cryptate) and 665 nm (XL665) were read by Envision 2104.
1) The percentage inhibition was calculated as follows: […]
Ratiopositive control: average value of Ratio 665/615 nm of all positive control wells in the plate.
Rationegative control: average value of Ratio 665/615 nm of all negative control wells in the plate.
2) Calculation of IC50 and fitting of dose-effect curve of compound:
The IC50 of the compound was derived using the following nonlinear fitting formula with GraphPad 6.0.
Y=Bottom+(Top−Bottom)/(1+10^((Log IC50−X)×HillSlope)).
X: log value of compound concentration; Y: percentage inhibition of compound

microsomal CLint [2]	microsomal CLint [4]	Cl [5]	Structure (SMILES)	inhibitory effect against the tumor compared with ARQ-531 and ibrutinib [1]	pIC50 [3]	pIC50 [6]	pIC50 [7]	pIC50 [8]	pIC50 [9]
15.7 µL/min/mg	< 9.6 µL/min/mg		COc1cccc(Oc2ccc(-c3nc(C4CCC(CO)OC4)n4ccnc(N)c34)cc2)c1C#N (single isomer, unassigned) [Example 89-P1]	significantly better inhibitory effect against the tumor than the clinical phase II drug ARQ-531 and the marketed drug ibrutinib	8.37				
13.7 µL/min/mg	< 9.6 µL/min/mg	0.8 mL/min/kg	Nc1nccn2c(C34CCC(CO)(CC3)OC4)nc(-c3ccc(C(=O)Nc4cc(C(F)(F)F)ccn4)cc3)c12 [Example 118]	significantly better inhibitory effect against the tumor than the clinical phase II drug ARQ-531 and the marketed drug ibrutinib	7.62	6.60			
			Nc1nccn2c(C34CCC(CO)(CC3)OC4)nc(-c3ccc(C(F)(F)c4cccc(F)c4F)cc3)c12 [Example 130]				7.05	7.00	8.36
